Reference: patent publication US20030229451A1, “Methods and systems for analyzing complex biological systems” (priority 2001, published 2003)

Test system: Saccharomyces cerevisiae wild type strain BY4743
Assay: AF1 metabolite analysis (GC-MS, LC-MS) of yeast cells treated with antifungal drugs
Assay type: cell-based
Settings: for # Compounds perturbed: 2x MIC, two hours; for Fold Change of NacetylDglucosamine: metabolite NacetylDglucosamine; for Fold Change of NacetylLglutamate: metabolite NacetylLglutamate; for Fold Change of NacetylLornithine: metabolite NacetylLornithine; for Fold Change of nicotinic acid: metabolite nicotinic acid; for Fold Change of nopaline: metabolite nopaline; for Fold Change of oleic acid: metabolite oleic acid; for Fold Change of ornithine: metabolite ornithine; for Fold Change of phenylalanine: metabolite phenylalanine; for Fold Change of phosphoenolpyruvate: metabolite phosphoenolpyruvate; for Fold Change of pipecolic acid: metabolite pipecolic acid; for Fold Change of proline: metabolite proline; for Fold Change of pyridoxine: metabolite pyridoxine; for Fold Change of selenoDLmethionine: metabolite selenoDLmethionine; for Fold Change of serine: metabolite serine; for Fold Change of sugar-phosphate: metabolite sugar-phosphate; for Fold Change of tetradecanoic acid: metabolite tetradecanoic acid; for Fold Change of threonine/homoserin: metabolite threonine/homoserin; for Fold Change of thymine: metabolite thymine; for Fold Change of tryptophan: metabolite tryptophan; for Fold Change of tyrosine: metabolite tyrosine; for Fold Change of urocanic acid: metabolite urocanic acid; for Fold Change of valine: metabolite valine; for Fold Change of zeatin: metabolite zeatin

SMILES: CC[C@@H]([C@H](C)O)n1ncn(-c2ccc(N3CCN(c4ccc(OC[C@@H]5CO[C@@](Cn6cncn6)(c6ccc(F)cc6F)C5)cc4)CC3)cc2)c1=O [Posaconazole]
- # Compounds perturbed (P < 0.05): 3
- # Compounds perturbed (P < 0.1): 4
- Fold Change (metabolite 2-ketobutyric acid, platform nLC): −0.9992
- Fold Change (metabolite 2-ketoglutaric, platform nLC): 11.33
- Fold Change (metabolite 3-indolylacetonitri, platform nLC): −0.9998
- Fold Change (metabolite 4-aminobenzoic acid, platform pLC): 0
- Fold Change (metabolite 4-methylcatechol, platform nLC): 0
- Fold Change (metabolite 4-methylcatechol, platform pLC): 0
- Fold Change (metabolite 4ambutyrate/dimglyc, platform pLC): 31.37
- Fold Change (metabolite 4aminobutyrate/dimg, platform nLC): −0.008939
- Fold Change (metabolite 5hydroxyLtryptophan, platform nLC): 0
- Fold Change (metabolite 5hydroxyLtryptophan, platform pLC): 0
- Fold Change (metabolite 6-benzylaminopurine, platform nLC): 0
- Fold Change (metabolite 6benzylaminopurine, platform pLC): 0
- Fold Change (metabolite DLaminoadipic acid, platform nLC): −0.9935
- Fold Change of NacetylDglucosamine (platform nLC): 0
- Fold Change of NacetylDglucosamine (platform pLC): 0
- Fold Change of NacetylLglutamate (platform nLC): −0.07165
- Fold Change of NacetylLglutamate (platform pLC): 0
- Fold Change of NacetylLornithine (platform nLC): 0
- Fold Change of NacetylLornithine (platform pLC): 0.1338
- Fold Change of TMS mevalonic acid lactone (metabolite TMS mevalonic acid lactone, platform GC): −0.3118
- Fold Change (metabolite abscisic acid, platform nLC): 0
- Fold Change (metabolite abscisic acid, platform pLC): 0
- Fold Change (metabolite aconitic acid, platform nLC): 1.874
- Fold Change (metabolite adenine, platform nLC): 0
- Fold Change (metabolite adenine, platform pLC): −0.0145
- Fold Change (metabolite adenosine, platform nLC): 128.3
- Fold Change (metabolite adenosine, platform pLC): 0
- Fold Change (metabolite alanine/sarcosine, platform pLC): 0.1013
- Fold Change (metabolite alanine, platform GC): 1.035
- Fold Change (metabolite alanine, platform nLC): 0.1091
- Fold Change (metabolite allantoic acid, platform nLC): 0.3321
- Fold Change (metabolite allantoic acid, platform pLC): 0
- Fold Change (metabolite allantoin, platform nLC): 5.97
- Fold Change (metabolite anthranillic acid, platform nLC): 0
- Fold Change (metabolite anthranillic acid, platform pLC): 0
- Fold Change (metabolite arginine, platform nLC): 0.1707
- Fold Change (metabolite arginine, platform pLC): 0.03383
- Fold Change (metabolite argininosuccinate, platform nLC): 318.3
- Fold Change (metabolite argininosuccinate, platform pLC): 0
- Fold Change (metabolite asparagine, platform GC): 0.145
- Fold Change (metabolite asparagine, platform nLC): 0.006865
- Fold Change (metabolite asparagine, platform pLC): 0.4302
- Fold Change (metabolite aspartic acid, platform GC): −0.071
- Fold Change (metabolite aspartic acid, platform pLC): 0.3626
- Fold Change (metabolite aspartic, platform nLC): 0.305
- Fold Change (metabolite benzoic acid, platform nLC): 0
- Fold Change (metabolite biotin, platform nLC): −0.9992
- Fold Change (metabolite biotin, platform pLC): 0
- Fold Change (metabolite caffeic acid, platform nLC): −0.49
- Fold Change (metabolite caffeine, platform pLC): 0
- Fold Change (metabolite campesterol, platform GC): 0
- Fold Change (metabolite catechol, platform nLC): 0
- Fold Change (metabolite cinnamic acid, platform nLC): 0
- Fold Change (metabolite citric acid TME, platform pLC): 0
- Fold Change (metabolite citricanoic/itaconi, platform nLC): 0
- Fold Change (metabolite citrulline, platform nLC): 1160
- Fold Change (metabolite citrulline, platform pLC): 0.1011
- Fold Change (metabolite coumaric acid, platform nLC): 0
- Fold Change (metabolite cytidine, platform nLC): −0.9986
- Fold Change (metabolite cytidine, platform pLC): 0
- Fold Change (metabolite cytosine, platform nLC): 0
- Fold Change (metabolite cytosine, platform pLC): 1135
- Fold Change (metabolite decanoic acid, platform nLC): 0.1263
- Fold Change (metabolite desmosterol, platform GC): 0
- Fold Change (metabolite diaminopimelic acid, platform nLC): 0
- Fold Change (metabolite diaminopimelic acid, platform pLC): 0
- Fold Change (metabolite dihydrofolic acid, platform nLC): 0
- Fold Change (metabolite dihydrofolic acid, platform pLC): 0
- Fold Change (metabolite dipicolinic acid, platform pLC): 0
- Fold Change (metabolite disaccaride1, platform GC): 0.04733
- Fold Change (metabolite disaccaride2, platform GC): 0.313
- Fold Change (metabolite disaccaride3, platform GC): 0.3407
- Fold Change of mevalonic acid lactone (metabolite mevalonic acid lactone, platform GC): 0.5555
- Fold Change of mevalonic lactone (metabolite mevalonic lactone, platform pLC): −0.08368
- Fold Change of niacinamide (metabolite niacinamide, platform pLC): 0
- Fold Change of nicotinic acid (platform nLC): 1.421
- Fold Change of nicotinic acid (platform pLC): −0.8142
- Fold Change of nopaline (platform nLC): 0.7554
- Fold Change of nopaline (platform pLC): 0
- Fold Change of octadecanoic acid (metabolite octadecanoic acid, platform GC): 0.321
- Fold Change of oleic acid (platform GC): −0.5057
- Fold Change of oleic acid (platform nLC): 0.5606
- Fold Change of ornithine2 (metabolite ornithine2, platform GC): −0.1383
- Fold Change of ornithine3 (metabolite ornithine3, platform GC): 0.041
- Fold Change of ornithine (platform nLC): 2.314
- Fold Change of ornithine (platform pLC): 0.4314
- Fold Change of orotic acid (metabolite orotic acid, platform nLC): 0
- Fold Change of palmiteliadic acid (metabolite palmiteliadic acid, platform GC): −0.2453
- Fold Change of palmitic acid (metabolite palmitic acid, platform nLC): 0.1518
- Fold Change of phenylalanine (platform GC): 0.06069
- Fold Change of phenylalanine (platform nLC): −0.03702
- Fold Change of phenylalanine (platform pLC): −0.1585
- Fold Change of phenylpyruvic acid (metabolite phenylpyruvic acid, platform nLC): 0
- Fold Change of phosphate (metabolite phosphate, platform GC): −0.1833
- Fold Change of phosphoenolpyruvate (platform nLC): 0
- Fold Change of phosphoenolpyruvate (platform pLC): 0
- Fold Change of pinitol (metabolite pinitol, platform nLC): 0
- Fold Change of pipecolic acid (platform nLC): 0.1806
- Fold Change of pipecolic acid (platform pLC): 0.3444
- Fold Change of porphobilinogen (metabolite porphobilinogen, platform nLC): 0
- Fold Change of progesterone (metabolite progesterone, platform pLC): 0
- Fold Change of proline (platform nLC): 0.3147
- Fold Change of proline (platform pLC): 0.3157
- Fold Change of pyridoxine (platform nLC): −0.1015
- Fold Change of pyridoxine (platform pLC): −0.239
- Fold Change of pyrimidine (metabolite pyrimidine, platform GC): 0.159
- Fold Change of retinoic acid (metabolite retinoic acid, platform nLC): 0
- Fold Change of riboflavin (metabolite riboflavin, platform pLC): 0
- Fold Change of salicylic/HObenzoic (metabolite salicylic/HObenzoic, platform nLC): 0
- Fold Change of selenoDLmethionine (platform nLC): −0.6722
- Fold Change of selenoDLmethionine (platform pLC): −0.7083
- Fold Change of serine (platform nLC): 0.152
- Fold Change of serine (platform pLC): 0.2417
- Fold Change of shikimic acid (metabolite shikimic acid, platform nLC): 0
- Fold Change of sinapinic acid (metabolite sinapinic acid, platform nLC): 0
- Fold Change of sorbitol/mannitol (metabolite sorbitol/mannitol, platform nLC): 0.009121
- Fold Change of squalene (metabolite squalene, platform GC): 0.07431
- Fold Change of succinic (metabolite succinic, platform nLC): −0.06141
- Fold Change of sucrose (metabolite sucrose, platform nLC): 0.1847
- Fold Change of sugar-phosphate (platform nLC): −0.04543
- Fold Change of sugar-phosphate (platform pLC): 0
- Fold Change of tetradecanoic acid (platform GC): −0.214
- Fold Change of tetradecanoic acid (platform nLC): 1.029
- Fold Change of thiamine (metabolite thiamine, platform pLC): 0
- Fold Change of threonine2 (metabolite threonine2, platform GC): 0.457
- Fold Change of threonine3 (metabolite threonine3, platform GC): 0.225
- Fold Change of threonine/homoserin (platform nLC): 0.04034
- Fold Change of threonine/homoserin (platform pLC): 0.1437
- Fold Change of thymine (platform nLC): 0
- Fold Change of thymine (platform pLC): 0
- Fold Change of tms glutamine3 (metabolite tms glutamine3, platform GC): 0.6709
- Fold Change of tms lysine4 (metabolite tms lysine4, platform GC): 0.05667
- Fold Change of tms tyrosine2 (metabolite tms tyrosine2, platform GC): 1.228
- Fold Change of tms tyrosine3 (metabolite tms tyrosine3, platform GC): 0.1911
- Fold Change of tryptophan (platform nLC): 4.676
- Fold Change of tryptophan (platform pLC): 0
- Fold Change of tyrosine (platform nLC): 0.0282
- Fold Change of tyrosine (platform pLC): 0.1008
- Fold Change of uracil (metabolite uracil, platform nLC): −0.2779
- Fold Change of uric acid (metabolite uric acid, platform pLC): 0
- Fold Change of uridine (metabolite uridine, platform nLC): 0.02855
- Fold Change of urocanic acid (platform nLC): 0
- Fold Change of urocanic acid (platform pLC): 0
- Fold Change of valine (platform GC): 0.345
- Fold Change of valine (platform nLC): 0.0195
- Fold Change of xanthosine(diH2O) (metabolite xanthosine(diH2O), platform pLC): 0
- Fold Change of xanthosineDiH2O (metabolite xanthosineDiH2O, platform nLC): 0
- Fold Change of zeatin (platform nLC): 0
- Fold Change of zeatin (platform pLC): 0
